Publication PMC5048659 (Arthritis Research & Therapy, 2016)
Entries after “also recorded” stand apart in the source; their conditions may differ.

Tests used:
[1] = cited from earlier work
[2] = target: T1, ABCG2 (Homo sapiens, UniProt Q9UNQ0); experiment: ABCG2 genistein net B→A flux in Caco-2 monolayers; format: cell-based
T1 construct: monolayers of Caco-2 cells expressing ABCG2 were grown on a permeable support; endogenous in cells; host or cells: Caco-2
T1 sequence (Q9UNQ0 1-655): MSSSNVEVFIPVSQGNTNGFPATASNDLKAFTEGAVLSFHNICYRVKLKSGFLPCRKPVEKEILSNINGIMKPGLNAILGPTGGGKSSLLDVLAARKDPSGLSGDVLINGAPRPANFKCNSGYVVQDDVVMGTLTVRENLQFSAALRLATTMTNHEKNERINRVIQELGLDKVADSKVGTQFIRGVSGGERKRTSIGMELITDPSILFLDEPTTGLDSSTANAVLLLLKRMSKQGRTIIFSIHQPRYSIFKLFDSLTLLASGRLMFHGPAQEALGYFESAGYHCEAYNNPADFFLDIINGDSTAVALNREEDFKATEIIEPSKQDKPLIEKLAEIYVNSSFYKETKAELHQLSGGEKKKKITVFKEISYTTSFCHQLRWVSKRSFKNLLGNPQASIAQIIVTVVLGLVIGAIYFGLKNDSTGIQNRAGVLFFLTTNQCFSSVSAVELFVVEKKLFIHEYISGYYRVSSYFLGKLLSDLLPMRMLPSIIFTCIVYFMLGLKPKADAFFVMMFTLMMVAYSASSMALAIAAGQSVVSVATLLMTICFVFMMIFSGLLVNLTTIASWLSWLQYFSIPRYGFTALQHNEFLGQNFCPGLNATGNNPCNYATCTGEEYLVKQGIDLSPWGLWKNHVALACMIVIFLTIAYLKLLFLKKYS
Protocol: For ABCG2, monolayers of Caco-2 cells expressing ABCG2 were grown on a permeable support ([…] membranes) in 24-transwell plates. […] Each treatment was assayed in triplicate: [^3H]-genistein substrate at 2 nM was then added for an additional 120 minutes at 37 °C. For basolateral-to-apical (B → A) flux measurements, genistein was placed in the basolateral compartment only (donor well) and a sample was taken after the 120-minute incubation period from the apical compartment (receiver well). For apical-to-basolateral (A → B) flux measurements, genistein was placed in the apical compartment only (donor well) and a sample was taken after the 120-minute incubation period from the basolateral compartment (receiver well). Samples were then subjected to scintillation counting. The inhibition of BCRP/ABCG2 was then calculated by the net B → A flux method. […]
The net transport in the B → A direction was determined by subtracting the substrate flux in the A → B direction from that in the B → A direction: NetB→Aflux=PappB→A‐PappA→B.
Percent inhibition is calculated by dividing the Net (B → A) flux in the presence of the inhibitor by the Net (B → A) flux in the absence of the inhibitor (inh): PercentInhibition=100‐100*NetB→Ainh/meanNetB→A.

[3] = target: T2, GLUT9 (SLC2A9v2/GLUT9ΔN) (Homo sapiens, UniProt Q9NRM0); experiment: GLUT9 urate transport in cRNA-injected oocytes; format: cell-based
T2 construct: expressed in transfected cells
T2 sequence (Q9NRM0 1-511 isoform Q9NRM0-2): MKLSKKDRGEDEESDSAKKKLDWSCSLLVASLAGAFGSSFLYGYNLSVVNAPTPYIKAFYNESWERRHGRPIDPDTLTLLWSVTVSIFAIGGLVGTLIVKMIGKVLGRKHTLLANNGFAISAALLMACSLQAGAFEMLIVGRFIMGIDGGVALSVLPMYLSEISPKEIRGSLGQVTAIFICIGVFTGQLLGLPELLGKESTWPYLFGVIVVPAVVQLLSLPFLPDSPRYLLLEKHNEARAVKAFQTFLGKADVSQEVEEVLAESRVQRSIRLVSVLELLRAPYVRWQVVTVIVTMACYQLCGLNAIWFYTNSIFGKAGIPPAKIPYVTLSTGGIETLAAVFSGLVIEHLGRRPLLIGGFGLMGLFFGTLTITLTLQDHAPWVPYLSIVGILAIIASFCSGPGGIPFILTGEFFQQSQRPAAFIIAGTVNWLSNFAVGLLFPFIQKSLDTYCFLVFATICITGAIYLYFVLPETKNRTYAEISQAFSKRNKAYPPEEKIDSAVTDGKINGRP
Protocol: For GLUT9, SLC2A9v2/GLUT9ΔN in pCMV6/neo was linearized with XmaI and NotI and cRNA transcribed using the mMessage mMachine T7 kit (Ambion). Oocytes were injected with either water or 25 ng cRNA and incubated for 3 to 5 days in ND96 buffer. For each point, 10 oocytes were incubated with 100 μM ^14C-uric acid in ND96 buffer with and without test compounds at room temperature for 60 minutes. The oocytes were then washed three to four times in ice-cold ND96 buffer and lysed prior to scintillation counting.

[4] = target: T3, PPARγ (Homo sapiens, UniProt P37231); experiment: Human PPARγ luciferase reporter assay; format: cell-based; conditions: reporter cells, 24 hours, up to 100 μM
T3 sequence (P37231 238-505 limits assumed): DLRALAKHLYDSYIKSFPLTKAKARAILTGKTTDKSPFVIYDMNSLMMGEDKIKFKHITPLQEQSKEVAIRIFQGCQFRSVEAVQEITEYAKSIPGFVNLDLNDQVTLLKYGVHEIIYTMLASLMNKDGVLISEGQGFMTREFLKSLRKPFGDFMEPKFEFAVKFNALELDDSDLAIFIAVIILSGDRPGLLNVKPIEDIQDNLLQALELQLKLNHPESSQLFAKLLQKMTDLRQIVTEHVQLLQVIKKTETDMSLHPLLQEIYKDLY
Protocol: This assay was performed using nonhuman mammalian cells engineered to provide a PPARγ-responsive luciferase reporter gene and constitutive, high levels of PPARγ (Indigo Biosciences catalog number IB00101). Cells were incubated with compounds for 24 hours, and then luciferase activity was measured using a luminometer. Agonist activity was reported as fold activation over a vehicle control. A positive control agonist, rosiglitazone, was included in each batch run to verify cell integrity.

[5] = cited from earlier work; remark: listed apart in the source

## O=C(O)CSc1nnc(Br)n1-c1ccc(C2CC2)c2ccccc12 [Lesinurad, 2-((5-bromo-4-(4-cyclopropylnaphthalen-1-yl)-4H-1,2,4-triazol-3-yl)thio) acetic acid]
[1]
  Plasma protein binding: 98.4%
[2]; Caco-2, 2 nM [3H]-genistein, 120 min, read-out: Potency against ABCG2
  IC50: > 100 µM
[2]; Caco-2, at up to 100 μM
  Effect on ABCG2 activity: no effect
[3]; 100 μM 14C-uric acid, 60 min, read-out: Potency against GLUT9
  IC50: > 100 µM
[3]; compound at up to 100 μM
  Effect on GLUT9 urate transport: no effect; also recorded: does not inhibit
[4]
  PPARγ activation: no PPARγ agonism
[5]
  Fraction of compound excreted via urine: approximately one third
